Results reported in ChEMBL document CHEMBL3885861, “Open TG-GATES”.

Organism: Rattus norvegicus
Assay: Open TG-GATES - Regimen: Daily Repeat
Type: toxicity, organism-based, Sprague-Dawley
Set-up: regimen Daily Repeat, gender Male, age 6 weeks
Settings: in vivo, po, 0 mg/kg, route gavage, dose level Control; for APTT / Bas / Eos / Fbg / Hb / Ht / Lym / MCH / MCHC / MCV / Mono / Neu / PT / Plat / RBC / Ret / WBC: tissue Blood; for KIDNEY_L / KIDNEY_R / KIDNEY_TOTAL: tissue Kidney; for LIVER: tissue Liver; for A/G / ALP / ALT / AST / BUN / CRE / Ca / Cl / DBIL / GLC / IP / K / LDH / Na / PL / RALB / TBIL / TC / TG / TP / gamma-GTP: tissue Plasma

O=C(O)c1cc(/N=N/c2ccc(S(=O)(=O)Nc3ccccn3)cc2)ccc1O [SULFASALAZINE]
TERMINAL_BW (72 h, time 3 day): 237.4 g
APTT (72 h, time 3 day): 18.3 s
Bas (72 h, time 3 day): 0%
Eos (72 h, time 3 day): 1%
Fbg (72 h, time 3 day): 245.4 mg/dL
Hb (72 h, time 3 day): 13.3 g/dL
Ht (72 h, time 3 day): 38.5%
Lym (72 h, time 3 day): 78.2%
MCH (72 h, time 3 day): 22 pg
MCHC (72 h, time 3 day): 34.7%
MCV (72 h, time 3 day): 63.5 fL
Mono (72 h, time 3 day): 3%
Neu (72 h, time 3 day): 16.8%
PT (72 h, time 3 day): 12.4 s
Plat (72 h, time 3 day): 125.9 x10_4/uL
RBC (72 h, time 3 day): 607.8 x10_4/ul
Ret (72 h, time 3 day): 6.3%
WBC (72 h, time 3 day): 93.4 x10_2/uL
KIDNEY_L (72 h, time 3 day): 1 g
KIDNEY_R (72 h, time 3 day): 1 g
KIDNEY_TOTAL (72 h, time 3 day): 2 g
LIVER (72 h, time 3 day): 11.2 g
A/G (72 h, time 3 day): 1.4
ALP (72 h, time 3 day): 938.8 IU/L
ALT (72 h, time 3 day): 39.8 IU/L
AST (72 h, time 3 day): 74.2 IU/L
BUN (72 h, time 3 day): 16.6 mg/dL
CRE (72 h, time 3 day): 0.4 mg/dL
Ca (72 h, time 3 day): 11 mg/dL
Cl (72 h, time 3 day): 102.6 meq/L
DBIL (72 h, time 3 day): 0.1 mg/dL
GLC (72 h, time 3 day): 207.4 mg/dL
IP (72 h, time 3 day): 7.3 mg/dL
K (72 h, time 3 day): 4 meq/L
LDH (72 h, time 3 day): 226.6 IU/L
Na (72 h, time 3 day): 140.6 meq/L
PL (72 h, time 3 day): 157 mg/dL
RALB (72 h, time 3 day): 3.4 g/dL
TBIL (72 h, time 3 day): 0.2 mg/dL
TC (72 h, time 3 day): 75.6 mg/dL
TG (72 h, time 3 day): 104 mg/dL
TP (72 h, time 3 day): 5.7 g/dL
gamma-GTP (72 h, time 3 day): 1.2 IU/L
TERMINAL_BW ([…], time 7 day): 263.5 g
TERMINAL_BW ([…], time 14 day): 308.2 g
TERMINAL_BW ([…], time 28 day): 377.2 g
APTT ([…], time 7 day): 19.2 s
Bas ([…], time 7 day): 0%
Eos ([…], time 7 day): 1%
Fbg ([…], time 7 day): 223.4 mg/dL
Hb ([…], time 7 day): 14.1 g/dL
Ht ([…], time 7 day): 41.1%
Lym ([…], time 7 day): 81.6%
MCH ([…], time 7 day): 21.5 pg
MCHC ([…], time 7 day): 34.2%
MCV ([…], time 7 day): 62.8 fL
Mono ([…], time 7 day): 2.6%
Neu ([…], time 7 day): 14.2%
PT ([…], time 7 day): 12.3 s
Plat ([…], time 7 day): 129.3 x10_4/uL
RBC ([…], time 7 day): 655 x10_4/ul
Ret ([…], time 7 day): 5.5%
WBC ([…], time 7 day): 126 x10_2/uL
APTT ([…], time 14 day): 19.7 s
Bas ([…], time 14 day): 0%
Eos ([…], time 14 day): 1%
Fbg ([…], time 14 day): 229.4 mg/dL
Hb ([…], time 14 day): 14.7 g/dL
Ht ([…], time 14 day): 41.7%
Lym ([…], time 14 day): 78.4%
MCH ([…], time 14 day): 20.9 pg
MCHC ([…], time 14 day): 35.3%
MCV ([…], time 14 day): 59.2 fL
Mono ([…], time 14 day): 2.4%
Neu ([…], time 14 day): 16.8%
PT ([…], time 14 day): 12.2 s
Plat ([…], time 14 day): 115.1 x10_4/uL
RBC ([…], time 14 day): 703.6 x10_4/ul
Ret ([…], time 14 day): 3.9%
WBC ([…], time 14 day): 92.7 x10_2/uL
APTT ([…], time 28 day): 20.6 s
Bas ([…], time 28 day): 0%
Eos ([…], time 28 day): 0.8%
Fbg ([…], time 28 day): 217.8 mg/dL
Hb ([…], time 28 day): 15.6 g/dL
Ht ([…], time 28 day): 43.1%
Lym ([…], time 28 day): 83.8%
MCH ([…], time 28 day): 20.1 pg
MCHC ([…], time 28 day): 36.2%
MCV ([…], time 28 day): 55.6 fL
Mono ([…], time 28 day): 1.4%
Neu ([…], time 28 day): 12.4%
PT ([…], time 28 day): 12.5 s
Plat ([…], time 28 day): 98.7 x10_4/uL
RBC ([…], time 28 day): 775.4 x10_4/ul
Ret ([…], time 28 day): 2.3%
WBC ([…], time 28 day): 97.9 x10_2/uL
KIDNEY_L ([…], time 7 day): 1.1 g
KIDNEY_R ([…], time 7 day): 1.1 g
KIDNEY_TOTAL ([…], time 7 day): 2.2 g
KIDNEY_L ([…], time 14 day): 1.2 g
KIDNEY_R ([…], time 14 day): 1.2 g
KIDNEY_TOTAL ([…], time 14 day): 2.4 g
KIDNEY_L ([…], time 28 day): 1.3 g
KIDNEY_R ([…], time 28 day): 1.3 g
KIDNEY_TOTAL ([…], time 28 day): 2.5 g
LIVER ([…], time 7 day): 12 g
LIVER ([…], time 14 day): 13.3 g
LIVER ([…], time 28 day): 14.8 g
A/G ([…], time 7 day): 1.4
ALP ([…], time 7 day): 884.4 IU/L
ALT ([…], time 7 day): 33 IU/L
AST ([…], time 7 day): 64.6 IU/L
BUN ([…], time 7 day): 16.8 mg/dL
CRE ([…], time 7 day): 0.4 mg/dL
Ca ([…], time 7 day): 10.7 mg/dL
Cl ([…], time 7 day): 103.4 meq/L
DBIL ([…], time 7 day): 0.092 mg/dL
GLC ([…], time 7 day): 233.6 mg/dL
IP ([…], time 7 day): 7.5 mg/dL
K ([…], time 7 day): 3.5 meq/L
LDH ([…], time 7 day): 218.6 IU/L
Na ([…], time 7 day): 140.8 meq/L
PL ([…], time 7 day): 160.4 mg/dL
RALB ([…], time 7 day): 3.4 g/dL
TBIL ([…], time 7 day): 0.1 mg/dL
TC ([…], time 7 day): 78.8 mg/dL
TG ([…], time 7 day): 99.8 mg/dL
TP ([…], time 7 day): 5.9 g/dL
gamma-GTP ([…], time 7 day): 1.2 IU/L
A/G ([…], time 14 day): 1.3
ALP ([…], time 14 day): 900.6 IU/L
ALT ([…], time 14 day): 43.4 IU/L
AST ([…], time 14 day): 76.6 IU/L
BUN ([…], time 14 day): 18.6 mg/dL
CRE ([…], time 14 day): 0.5 mg/dL
Ca ([…], time 14 day): 10.6 mg/dL
Cl ([…], time 14 day): 103.4 meq/L
DBIL ([…], time 14 day): 0.1 mg/dL
GLC ([…], time 14 day): 189.8 mg/dL
IP ([…], time 14 day): 6.4 mg/dL
K ([…], time 14 day): 3.8 meq/L
LDH ([…], time 14 day): 292 IU/L
Na ([…], time 14 day): 140.4 meq/L
PL ([…], time 14 day): 155 mg/dL
RALB ([…], time 14 day): 3.3 g/dL
TBIL ([…], time 14 day): 0.2 mg/dL
TC ([…], time 14 day): 63.2 mg/dL
TG ([…], time 14 day): 175.8 mg/dL
TP ([…], time 14 day): 6 g/dL
gamma-GTP ([…], time 14 day): 1.2 IU/L
A/G ([…], time 28 day): 1.3
ALP ([…], time 28 day): 718.2 IU/L
ALT ([…], time 28 day): 49.2 IU/L
AST ([…], time 28 day): 80.6 IU/L
BUN ([…], time 28 day): 17.8 mg/dL
CRE ([…], time 28 day): 0.5 mg/dL
Ca ([…], time 28 day): 10.3 mg/dL
Cl ([…], time 28 day): 103.6 meq/L
DBIL ([…], time 28 day): 0.1 mg/dL
GLC ([…], time 28 day): 217.6 mg/dL
IP ([…], time 28 day): 6.1 mg/dL
K ([…], time 28 day): 3.7 meq/L
LDH ([…], time 28 day): 287.2 IU/L
Na ([…], time 28 day): 141.2 meq/L
PL ([…], time 28 day): 148.4 mg/dL
RALB ([…], time 28 day): 3.4 g/dL
TBIL ([…], time 28 day): 0.2 mg/dL
TC ([…], time 28 day): 68.8 mg/dL
TG ([…], time 28 day): 151.4 mg/dL
TP ([…], time 28 day): 6.2 g/dL
gamma-GTP ([…], time 28 day): 0.8 IU/L
